Patent publication US11479555B2, “Substituted 1,2-dihydro-3H-pyrazolo[3,4-D]pyrimidin-3-ones as inhibitors of WEE-1 kinase” (Newave Pharmaceutical Inc., priority 2018, dated 2022)

Tests used:
[1] = target: Wee1 kinase (Homo sapiens (Human), UniProt P30291); test: Wee-1 biochemical assay; settings: another study
Procedure: In determination of the Weel kinase activity, a synthetic peptide, Poly(Lys,Tyr) Hydrobromide (Lys:Tyr (4:1)) bought from Sigma was used as the substrate. The amount of the reaction mixture was 21.1 μL; and the composition of the reaction buffer was 50 mM Tris-HCl buffer (pH 7.4)/10 mM magnesium chloride/1 mM dithiothreitol. The purified Weel kinase, 2.5 μg of the substrate peptide, 10 μM of non-labeled adenosine triphosphate (ATP) and 1 μCi of [γ-^33P]-labeled ATP (2500 Ci/mmol or more) were added to it, and incubated at 30° C. for 30 minutes. Next, 10 μL of 350 mM phosphate buffer was added to the reaction mixture to stop the reaction. The substrate peptide was adsorbed by a P81 paper filter 96-well plate, then washed a few times with 130 mM phosphate buffer, and its radioactivity was counted with a liquid scintillation counter. The [γ-^33P]-labeled ATP was bought from Amersham Bioscience. To add the test compound to the reaction system, the compound was diluted with dimethylsulfoxide (DMSO) to prepare a series of dilutions. 1.1 μL of each dilution was added to the reaction system. As a control, 1.1 μL of DMSO was added to the reaction system. Such assays, carried out with a range of doses of test compounds, allow the determination of the Wee1 IC50 of the compounds of the present invention

[2] = system: LoVo; test: In vitro cellular anti-proliferation assay (ATPlite), LoVo; type: cell-based; settings: Homo sapiens, about 72 hours, 5% FBS
Procedure: (§1) Cell antiproliferation was assayed by PerkinElmer ATPlite™ Luminescence Assay System. Briefly, the various test cancer cell lines were plated at a density of about 1×10^4 cells per well in Costar 96-well plates, and were incubated with different concentrations of compounds for about 72 hours in medium supplemented with 5% FBS. One lyophilized substrate solution vial was then reconstituted by adding 5 mL of substrate buffer solution, and was agitated gently until the solution was homogeneous. About 50 μL of mammalian cell lysis solution was added to 100 μL of cell suspension per well of a microplate, and the plate was shaken for about five minutes in an orbital shaker at ˜700 rpm. This procedure was used to lyse the cells and to stabilize the ATP. Next, 50 μL substrate solution was added to the wells and microplate was shaken for five minutes in an orbital shaker at ˜700 rpm. Finally, the luminescence was measured by a PerkinElmer TopCount® Microplate Scintillation Counter. Such assays, carried out with a range of doses of test compounds, allowed the determination of the cellular anti-antiproliferative IC50 of the compounds of the present invention.
(§2) The following table lists the LoVo IC50 values of another study for certain compounds of the invention.

[3] = Mice CNS PK study; type: in vivo; settings: CD-1 mouse; for AUC(0-t): plasma, read-out: Plasma AUClast; for Kp: brain/plasma (printed as Brain/Blood), read-out: Brain/Blood Ratio
Procedure: The pharmacokinetics of compounds were evaluated in CD-1 mouse via Intravenous and Oral Administration. The iv dose was administered as a slow bolus in the Jugular vein, and oral doses were administered by gavage. The formulation for IV dosing is 5% DMSO in “20% HPBCD in water, and the PO formulation is 2.5% DMSO, 10% EtOH, 20% Cremphor EL, 67.5% D5W. The PK time point for the IV arm is 5, 15, 30 min, 1, 2, 4, 6, 8, 12, 24 hours post dose, and for PO arm is 15, 30 min, 1, 2, 4, 6, 8, 12, 24 hours post dose.
Plasma Samples Processing and Storage: Approximately 0.2 mL blood will be collected at each time point. Keep blood at room temperature and collect plasma within 15 min by centrifugation at 4000 g for 5 minutes in a 4° C. centrifuge. Plasma samples will be stored in polypropylene tubes. The plasma samples will be stored in a freezer at −75±15° C. prior to analysis.
Brain Samples Processing and Storage: The mice will be fully exsanguinated prior to tissue collection. Procedure: open chest cavity, cut ventricle and perform a gentle iv saline flush (saline flush volume ˜10 ml) with the animal placed head down at a 45 degree angle to facilitate blood removal. Tissue samples will be collected at adopted time point, quick frozen in ice box and kept at −75±15° C. All tissue samples will be weighted and homogenized with water by tissue weight (g) to water volume (mL) at ratio 1:3 before analysis. The actual concentration is the detected value multiplied by the dilution factor.
Concentrations of compounds in the plasma samples will be analyzed using a LC-MS/MS method. WinNonlin (Phoenix™, version 6.1) or other similar software will be used for pharmacokinetic calculations. The following pharmacokinetic parameters will be calculated, whenever possible from the plasma concentration versus time data: IV administration: C0, CL, Vd, T1/2, AUCinf, AUClast, MRT, Number of Points for Regression; PO administration: Cmax, Tmax, T1/2, AUCinf, AUClast, F %, Number of Points for Regression. The pharmacokinetic data will be described using descriptive statistics such as mean, standard deviation. Additional pharmacokinetic or statistical analysis may be performed at the discretion of the contributing scientist, and will be documented in the data summary.

[4] = system: SK-MES-1; test: In vitro cellular anti-proliferation assay (ATPlite), SK-MES-1; type: cell-based; settings: Homo sapiens, about 72 hours, 5% FBS
Procedure: as §1, §2

[5] = system: A498; test: In vitro cellular anti-proliferation assay (ATPlite), A498; type: cell-based; settings: Homo sapiens, about 72 hours, 5% FBS
Procedure: as §1, §2

[6] = system: tumor; test: In vivo xenograft study; design: species or system CB.17 SCID mice; settings: 7 dose at 100 mg/kg, day 18
Source text: The CB.17 SCID mice are obtained at age 6-8 weeks from vendors and acclimated for a minimum 7-day period. The cancer cells are then implanted into the […] mice. Depending on the specific tumor type, tumors are typically detectable about two weeks following implantation. When tumor sizes reach ˜100-200 mm^3, the animals with appreciable tumor size and shape are randomly assigned into groups of 8 mice each, including one vehicle control group and treatment groups. Dosing varies depending on the purpose and length of each study, which typically proceeds for about 3-4 weeks. Tumor sizes and body weight are typically measured three times per week. In addition to the determination of tumor size changes, the last tumor measurement is used to generate the tumor size change ratio (T/C value), a standard metric developed by the National Cancer Institute for xenograft tumor evaluation. […] When tumor regression occurred (ΔT<0), however, the following formula is used: % T/T0=100×ΔT/T0.

[7] = system: WEE1; settings: inhibits WEE1 activity, induces DNA damage and G2 checkpoint escape; read-out: EC50 in cell based assays; cited from earlier work

Wee1 kinase, sequence (P30291 whole entry): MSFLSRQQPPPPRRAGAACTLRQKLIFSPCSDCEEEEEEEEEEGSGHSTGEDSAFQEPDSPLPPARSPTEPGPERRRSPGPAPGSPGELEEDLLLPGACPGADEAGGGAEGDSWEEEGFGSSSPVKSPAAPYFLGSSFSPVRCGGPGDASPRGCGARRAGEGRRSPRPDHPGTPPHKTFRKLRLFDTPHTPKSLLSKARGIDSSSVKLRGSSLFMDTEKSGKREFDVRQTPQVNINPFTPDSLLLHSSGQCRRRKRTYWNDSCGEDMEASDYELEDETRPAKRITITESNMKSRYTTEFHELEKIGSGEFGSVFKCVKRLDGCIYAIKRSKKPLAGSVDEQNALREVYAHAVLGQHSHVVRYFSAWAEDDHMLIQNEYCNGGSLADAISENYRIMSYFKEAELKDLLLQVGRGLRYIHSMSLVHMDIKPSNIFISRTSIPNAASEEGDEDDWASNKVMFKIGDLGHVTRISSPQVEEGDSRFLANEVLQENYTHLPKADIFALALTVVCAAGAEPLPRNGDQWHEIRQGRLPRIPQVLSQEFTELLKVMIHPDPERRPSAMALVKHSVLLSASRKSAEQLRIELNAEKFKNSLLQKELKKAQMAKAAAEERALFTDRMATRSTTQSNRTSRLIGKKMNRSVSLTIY

## CC(C)n1c(=O)c2cnc(Nc3ccc(N4CCN(C)CC4)cc3)nc2n1-c1cccc(C(C)(C)C(F)(F)F)n1 [Example 11, 2-isopropyl-6-((4-(4-methylpiperazin-1-yl)phenyl)amino)-1-(6-(1,1,1-trifluoro-2-methylpropan-2-yl)pyridin-2-yl)-1,2-dihydro-3H-pyrazolo[3,4-d]pyrimidin-3-one]
[1]
  IC50: < 1.5 nM
[2]
  IC50: < 300 nM
[3]
  Brain AUClast: 12,002 h*ng/mL
  AUC(0-t): 7510 ng·h/mL
  Kp: 1.6
[4]
  IC50: < 250 nM
[5]
  IC50: < 500 nM

## CC(C)n1c(=O)c2cnc(Nc3ccc(N4CCN(C)CC4)cc3)nc2n1-c1cccc(C2CC2)n1 [Example 15, 1-(6-cyclopropylpyridin-2-yl)-2-isopropyl-6-((4-(4-methylpiperazin-1-yl)phenyl)amino)-1,2-dihydro-3H-pyrazolo[3,4-d]pyrimidin-3-one]
[1]
  IC50: < 1.5 nM
[2]
  IC50: < 300 nM
[3]
  Brain AUClast: 4,910 h*ng/mL
  AUC(0-t): 4710 ng·h/mL
  Kp: 1
[4]
  IC50: < 250 nM
[5]
  IC50: < 500 nM

## C=CCn1c(=O)c2cnc(Nc3cnn(C4CCN(C5CCC(F)(F)CC5)CC4)c3)nc2n1-c1cccc(C(C)(C)O)n1.Cl [Example 3, 6-([1-[1-(4,4-difluorocyclohexyl)piperidin-4-yl]-1H-pyrazol-4-yl]amino)-1-[6-(2-hydroxypropan-2-yl)pyridin-2-yl]-2-(prop-2-en-1-yl)-1H,2H,3H-pyrazolo[3,4-d]pyrimidin-3-one Hydrochloride]
[6]
  tumor regression: complete regression of the tumor

## C=CCn1c(=O)c2cnc(Nc3ccc(N4CCN(C)CC4)cc3)nc2n1-c1cccc(C(C)(C)O)n1 [AZD1775, reference compound]
[7]
  EC50: […]
[2]
  IC50: < 300 nM
[3]
  Brain AUClast: 524 ng·h/mL
  AUC(0-t): 9000 ng·h/mL
  Kp: 0.058
[4]
  IC50: < 250 nM
[5]
  IC50: < 500 nM

## CC(C)n1c(=O)c2cnc(Nc3ccc(N4CCN(C)CC4)cc3)nc2n1-c1cccc(C(C)(C)F)n1 [Example 13, 1-(6-(2-fluoropropan-2-yl)pyridin-2-yl)-2-isopropyl-6-((4-(4-methylpiperazin-1-yl)phenyl)amino)-1,2-dihydro-3H-pyrazolo[3,4-d]pyrimidin-3-one]
[1]
  IC50: < 1.5 nM
[2]
  IC50: < 300 nM
[3]
  Brain AUClast: 11,907 h*ng/mL
  AUC(0-t): 8660 ng·h/mL
  Kp: 1.38
[4]
  IC50: < 250 nM
[5]
  IC50: < 500 nM
